This is an account of results in US8686152B2, “4,4-disubstituted piperidine derivatives useful as inhibitors of dipeptidyl peptidase-1 (DPP-1)” (Janssen Pharmaceutica NV, priority 2010, dated 2014).

Counter-ions that a name gives are not always drawn.

This assay deals with T1, recombinant human DPP-1 (Cathepsin C) (Homo sapiens, UniProt P53634).
T1 construct: made in house
In words: DPP-1 Inhibition Assay (In Vitro), fluorogenic substrate GR-AMC. Type of assay: biochemical. The following applies: 0.15 nM DPP-1, 10 uM GR-AMC, pH 7.0, room temperature; average value where tested multiple times. The protocol: Test compounds were assessed for DPP-1 (Cathepsin C) inhibitory activity using a fluorogenic substrate, GR-AMC (Glycine-Arginine-amino-4-methylcoumarin, Bachem, I-1215). The amount of amino-methylcoumarin released is proportional to the DPP-1 activity, and the reaction is monitored kinetically with a Molecular Devices plate reader using black 96-well plates.
All compounds were tested under room temperature conditions. The assay buffer consisted of 50 mM HEPES, pH 7.0, 100 mM NaCl, 2 mM glutathione (GSH), and 0.002% TWEEN 20. GSH and TWEEN 20 were added to the buffer fresh daily. Just prior to use, an in-house preparation of recombinant human DPP-1 (240 μM stock, MW 49.6 kD) was diluted 600-fold in assay buffer containing fresh 2 mM dithiothreitol (DTT) to activate the enzyme, then diluted into assay buffer (without DTT) 133-fold for a DPP-1 working solution of 3 nM. Test compounds were diluted in DMSO for 20× their final assay concentrations.
Additions to a 96-well black Costar 3915 plates were as follows: 90 μL of 11 μM GR-AMC, 5 μL test compound (followed by mixing), and 5 μL 3 nM DPP-1 to start the reaction. Fluorescent reactions were monitored kinetically at 360 nm excitation, 440 nm emission on a Molecular Devices Spectramax XPS reader. The Softmax Pro software of the reader determined the initial velocity of the selected data (the first 3-5 minutes of the reaction), and the best linear regression fit of the initial kinetic data. Final assay conditions were 0.15 nM DPP-1, 10 uM GR-AMC, 50 mM HEPES, pH 7.0, 100 mM NaCl, 2 mM GSH, 0.002% TWEEN 20, 1 uM DTT, 5.0% DMSO. Initial velocity rates were plotted vs. test compound concentration by use of a four-parameter logistics equation (nonlinear regression, sigmoidal dose-response (variable slope), with fixed Hill (1.0) using GraphPad Prism® software for determination of DPP-1 IC50. Within-run assay coefficient of variation (CV) was generally <10%; between-run CV <20%.
Representative compounds of the present invention were tested according to the procedure as described above, with results as listed in Table 5, below.

T1 sequence (P53634 25-463): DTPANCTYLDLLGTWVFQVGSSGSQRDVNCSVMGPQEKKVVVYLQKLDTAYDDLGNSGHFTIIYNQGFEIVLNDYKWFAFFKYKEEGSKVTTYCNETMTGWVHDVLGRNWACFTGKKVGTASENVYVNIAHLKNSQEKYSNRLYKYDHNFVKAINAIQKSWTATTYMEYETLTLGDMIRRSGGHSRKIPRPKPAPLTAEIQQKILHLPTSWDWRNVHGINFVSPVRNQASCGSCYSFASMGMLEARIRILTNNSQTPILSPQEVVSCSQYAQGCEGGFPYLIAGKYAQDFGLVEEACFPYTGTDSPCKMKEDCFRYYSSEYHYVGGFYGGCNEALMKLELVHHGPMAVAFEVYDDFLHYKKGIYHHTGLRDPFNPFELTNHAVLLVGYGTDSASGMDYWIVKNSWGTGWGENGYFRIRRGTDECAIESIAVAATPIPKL

A word on the IC50: it is the concentration at which inhibition is half-maximal. Take `N[C@@H](Cc1cccs1)C(=O)N1CCC(C(=O)N[C@H]2CC[C@H](O)CC2)(c2cc(C(F)(F)F)cc(C(F)(F)F)c2)CC1` [Compound 120]: the half-maximal inhibitory concentration (IC50) came to 230 nM.

As to `C[C@@H](O)[C@H](N)C(=O)N1CCC(C(=O)NCC2CCCCC2)(c2ccccc2)CC1` [Compound 139], the concentration for half-maximal inhibition (IC50) worked out at 2600 nM.

Regarding `N[C@@H](Cc1cccs1)C(=O)N1CCC(Cc2ccc([N+](=O)[O-])cc2)(C(=O)NC2CCCCC2)CC1` [Compound 81], the IC50 was found to be 24 nM.

As for `N[C@@H](Cc1cccs1)C(=O)N1CCC(Cc2ccc(-c3ccccc3)cc2)(C(=O)N2CCCCC2)CC1` [Compound 4], the IC50 is 430 nM.

As for `Cc1ccc(C2(C(=O)NCC3CCOCC3)CCN(C(=O)[C@@H](N)Cc3cccs3)CC2)cc1` [Compound 130], the IC50 came out at 41 nM.

On to `N[C@@H](Cc1cccs1)C(=O)N1CCC(Cc2ccc(NS(=O)(=O)C(F)(F)F)cc2)(C(=O)NC2CCCCC2)CC1` [Compound 89], for which the half-inhibitory concentration (IC50) was 150 nM.

In the case of `N[C@@H](Cc1ccc(Cl)s1)C(=O)N1CCC(Cc2ccc(-c3ccccc3)cc2)(C(=O)NC2CCCCC2)CC1` [Compound 78], the half-maximal inhibitory concentration (IC50) was found to be 5600 nM.

In the case of `N[C@@H](Cc1cccs1)C(=O)N1CCC(Cc2ccccc2)(C(=O)NC2CCCCC2)CC1` [Compound 86], the 50% inhibitory concentration (IC50) came out at 40 nM.

In the case of `N[C@@H](Cc1cccs1)C(=O)N1CCC(C(=O)NC[C@H]2CC[C@H](C(=O)O)CC2)(c2ccccc2)CC1` [Compound 112], the IC50 was found to be 200 nM.

For `COC[C@H](N)C(=O)N1CCC(Cc2ccc(-c3ccccc3)cc2)(C(=O)NC2CCCCC2)CC1` [Compound 39], the IC50 came to 18000 nM.

On to `N[C@@H](Cc1ccccc1)C(=O)N1CCC(Cc2ccc(-c3ccccc3)cc2)(C(=O)NCC2CCCCC2)CC1` [Compound 108], for which the 50% inhibitory concentration (IC50) is around 4000 nM.

For the molecule `N[C@@H](Cc1cccs1)C(=O)N1CCC(Cc2ccc(C(=O)NC3CCCCC3)cc2)(C(=O)NC2CCCCC2)CC1` [Compound 56], the IC50 came to 49 nM.

Take `N[C@@H](Cc1cccs1)C(=O)N1CCC(Cc2ccncc2)(C(=O)N2CCOCC2)CC1` [Compound 122]: the 50% inhibitory concentration (IC50) came out at 1300 nM.

Take `COC(=O)[C@H]1CC[C@H](CNC(=O)C2(c3ccccc3)CCN(C(=O)[C@@H](N)Cc3cccs3)CC2)CC1` [Compound 110]: the IC50 is 170 nM.

As to `COc1ccc(-c2ccc(CC3(C(=O)NC4CCCCC4)CCN(C(=O)[C@@H](N)Cc4cccs4)CC3)cc2)cn1` [Compound 44], the half-maximal inhibitory concentration (IC50) was found to be 29 nM.

Turning to `CC[C@H](N)C(=O)N1CCC(Cc2ccncc2)(C(=O)NC2CCCCC2)CC1` [Compound 72], the IC50 was 5000 nM.

With `N[C@@H](Cc1c[nH]cn1)C(=O)N1CCC(Cc2ccc(C(F)(F)F)cc2)(C(=O)OCC2CCCCC2)CC1` [Compound 20], the IC50 was 3100 nM.

`CC[C@H](N)C(=O)N1CCC(Cc2cccnc2)(C(=O)NC2CCCCC2)CC1` [Compound 67]: the IC50 is 9100 nM.

For the molecule `N[C@@H](Cc1c[nH]cn1)C(=O)N1CCC(Cc2ccccc2)(C(=O)OCC2CCCCC2)CC1` [Compound 12], the half-inhibitory concentration (IC50) is around 5000 nM.

Consider `COc1ncccc1-c1ccc(CC2(C(=O)NC3CCCCC3)CCN(C(=O)[C@@H](N)Cc3cccs3)CC2)cc1` [Compound 46], for which the half-inhibitory concentration (IC50) came out at 38 nM.

Turning to `N[C@@H](Cc1cccs1)C(=O)N1CCC(Cc2ccc(-c3cccnc3)cc2)(C(=O)NC2CCCCC2)CC1` [Compound 50], the IC50 worked out at 35 nM.

Consider `CC[C@H](N)C(=O)N1CCC(Cc2ccc(C#N)cc2)(C(=O)OCC2CCCCC2)CC1` [Compound 17], for which the half-maximal inhibitory concentration (IC50) was found to be 4400 nM.

As for `CC[C@H](N)C(=O)N1CCC(C(=O)NC2CCCCC2)(c2ccccc2)CC1` [Compound 70], the IC50 worked out at 9400 nM.

With `CC[C@H](N)C(=O)N1CCC(C(=O)N(C)C2CCCCC2)(c2ccccc2)CC1` [Compound 138], the IC50 was 1700 nM.

Turning to `N#Cc1ccc(-c2ccc(CC3(C(=O)NC4CCCCC4)CCN(C(=O)[C@@H](N)Cc4cccs4)CC3)cc2)cc1` [Compound 51], the half-maximal inhibitory concentration (IC50) amounted to 35 nM.

In the case of `N[C@@H](Cc1cccs1)C(=O)N1CCC(Cc2cccnc2)(C(=O)OCC2CCCCC2)CC1` [Compound 24], the concentration for half-maximal inhibition (IC50) is 99 nM.

For `N[C@@H](Cc1cccs1)C(=O)N1CCC(Cc2ccc(C(=O)Nc3ccccc3)cc2)(C(=O)NC2CCCCC2)CC1` [Compound 60], the IC50 came to 33 nM.

On to `Cc1ccc(C2(C(=O)NCC3CCCCC3)CCN(C(=O)[C@@H](N)Cc3cccs3)CC2)cc1` [Compound 129], for which the IC50 was 17 nM.

In the case of `COc1cccc(CC2(C(=O)NC3CCCCC3)CCN(C(=O)[C@@H](N)Cc3cccs3)CC2)c1` [Compound 84], the IC50 is 56 nM.

`N[C@@H](Cc1cccs1)C(=O)N1CCC(Cc2ccc(-c3ccc(O)nc3)cc2)(C(=O)NC2CCCCC2)CC1` [Compound 49]: the IC50 was determined as 24 nM.

Turning to `N[C@@H](Cc1cccs1)C(=O)N1CCC(C(=O)NC2CCCCC2)(c2ccccc2)CC1` [Compound 69], the concentration for half-maximal inhibition (IC50) is 73 nM.

Regarding `CCSCC[C@H](N)C(=O)N1CCC(Cc2ccc(-c3ccccc3)cc2)(C(=O)NCC2CCCCC2)CC1` [Compound 106], the IC50 is 5600 nM.

In the case of `N[C@@H](Cc1c[nH]cn1)C(=O)N1CCC(Cc2cccnc2)(C(=O)NC2CCCCC2)CC1` [Compound 68], the IC50 is 910 nM.

`N#CC[C@H](N)C(=O)N1CCC(Cc2ccc(-c3ccccc3)cc2)(C(=O)NC2CCCCC2)CC1` [Compound 36]: the IC50 was determined as 600 nM.

With `N[C@@H](Cc1cccs1)C(=O)N1CCC(Cc2cccc(-c3ccc(C(F)(F)F)cc3)c2)(C(=O)NC2CCCCC2)CC1` [Compound 100], the IC50 worked out at 120 nM.

Regarding `CSCC[C@H](N)C(=O)N1CCC(Cc2ccc(I)cc2)(C(=O)NC2CCCCC2)CC1` [Compound 73], the IC50 amounted to 250 nM.

On to `N[C@@H](Cc1cccs1)C(=O)N1CCC(C(=O)NC2CCOCC2)(c2ccccc2)CC1` [Compound 103], for which the IC50 is 310 nM.

For the molecule `N[C@@H](Cc1cccs1)C(=O)N1CCC(Cc2cccc(-c3ccccc3)c2)(C(=O)OCC2CCCCC2)CC1` [Compound 30], the 50% inhibitory concentration (IC50) was found to be 880 nM.

Take `N[C@@H](Cc1c[nH]cn1)C(=O)N1CCC(Cc2ccc([N+](=O)[O-])cc2)(C(=O)NC2CCCCC2)CC1` [Compound 79]: the IC50 amounted to 620 nM.

For the molecule `N[C@@H](Cc1cccs1)C(=O)N1CCC(Cc2ccc(-c3ccccc3)cc2)(C(=O)NCC2CCCCC2)CC1` [Compound 3, (S)-1-(2-amino-3-(thiophen-2-yl)propanoyl)-4-(biphenyl-4-ylmethyl)-N-(cyclohexylmethyl)piperidine-4-carboxamide hydrochloride], the IC50 is 84 nM.

Regarding `CC[C@H](N)C(=O)N1CCC(Cc2ccc(F)cc2F)(C(=O)OCC2CCCCC2)CC1` [Compound 26], the concentration for half-maximal inhibition (IC50) came out at 6100 nM.

For the molecule `N[C@@H](Cc1cccs1)C(=O)N1CCC(C(=O)NCC2CCCCC2)(c2ccccc2)CC1` [Compound 91], the IC50 was 23 nM.

In the case of `N[C@@H](Cc1cccs1)C(=O)N1CCC(Cc2ccncc2)(C(=O)OCC2CCCCC2)CC1` [Compound 22], the IC50 was determined as 93 nM.
